Test system: children with confirmed ASD diagnoses
Assay: Outcome of therapies received prior to the subject treatment, as reported by parents
Type: in vivo, human

Compound | result of prior treatment by Valtrex and Viferon (patient one, given together) | result of prior Valtrex, according to parents the most effective prior therapy (patient two) | result of prior 5-metylhydrofolate and Metylcobalamin B-12 (patient one, given together)
CC(C)[C@H](N)C(=O)OCCOCn1cnc2c(=O)[nH]c(N)nc21 [Valtrex, valacyclovir] | they are getting sick more rarely, learned to swim and to communicate through PECS cards | they became more communicative, attempts to speak appeared, became calmer, eye contact has improved | 
Metylcobalamin B-12 |  |  | more self-dependence
CN1c2c(nc(N)[nH]c2=O)NCC1CNc1ccc(C(=O)N[C@@H](CCC(=O)O)C(=O)O)cc1 (stereo partly shown) [5-metylhydrofolate] |  |  | more self-dependence
